Experimental data reported in patent publication US20110046223A1, “TREATMENT OF NEUROFIBROMATOSIS” (RAMOT AT TEL-AVIV UNIVERSITY LTD., priority 2006, published 2011).

Key:
NF-1+/+ SV40 MEFs = assay: colchicine-induced death, cell viability by MTT assay; assay type: cell-based, mouse; settings: NF-1+/+ cells; 75 μM FTS or vehicle 24 h, then colchicine 4.5 h
Method: (§1) Human NF-1 ST88-14 MPNST, non-NF-1 STS26T MPNST, and the different primary and SV40-immortalized NF-1 genotypes (NF-1^−/−, NF-1^+/−, and NF-1^+/+) of mouse embryonic fibroblasts (MEFs) were grown in high-glucose Dulbecco's modified Eagle's medium (DMEM) supplemented with 10% heat-inactivated fetal calf serum (both from Biological Industries, Beit Ha Emek, Israel) with 0.0004% β-mercaptoethanol added to the MEF growth medium only.
(§2) The three primary NF-1 MEF genotypes were immortalized by transfection with SV40 whole genome DNA (a gift from Dr. Atan Gross, The Weizmann Institute of Science) using the lipofectamine transfection reagent (InvitroGen Life Technologies, Paisley, UK). One day before transfection, primary MEFs were seeded at a density of 2×10^5 cells per well in 6-well plates. To each dish we added 1 ml of DNA-lipofectamine mixture, 0.1 μg SV40 whole genome DNA, and 10 μg of lipofectamine in 1 ml of OptiMEM (InvitroGen), according to the manufacturer's instructions. The cells were split 24 h after transfection and seeded in 10-cm^2 dishes at a density of 1×10^3 to 1×10^4 cells per dish. Immortalized clones from each NF-1 genotype were collected 14 days after transfection.
(§3) Cell viability was determined by the MTT assay.

[1] = system: NF-1−/− and NF-1+/− SV40 MEFs; assay: as above; assay type: cell-based, mouse; settings: NF-1−/− and NF-1+/− cells; 75 μM FTS or vehicle 24 h, then colchicine 4.5 h
Method: as §1, §2, §3

## COc1cc2c(c(OC)c1OC)-c1ccc(OC)c(=O)cc1[C@@H](NC(C)=O)CC2 [colchicine, Acetamide, N-((7S)-5,6,7,9-tetrahydro-1,2,3,10-tetramethoxy-9-oxobenzo(a)heptalen-7-yl)-]
NF-1+/+ SV40 MEFs
  cell survival / colchicine-induced cell death: induced death
[1]
  cell survival / colchicine-induced cell death: only a small effect on cell survival
